Peptide text beside a SMILES is read from it.
Columns and labels:
[1] = 50° C., 50 mM TES, pH 8.0 and 30% isopropanol
[2] = pH 8
Soy = assay: Growth test, foliar spray, soy; assay type: in vivo
Method: For growth tests, corn and soy seeds were planted in flats with 2 seeds per cell within the flat at a greenhouse facility. The seeds were allowed to germinate and the smaller plant is culled, leaving one plant per cell. Once the first true leaves are fully expanded and the second leaves are beginning to expand, the plants were initially measured for height. This was performed by stretching the highest leaf upward and measuring the distance to the soil. Peptides were dissolved in water at the indicated concentrations (below). The plants were then treated with a foliar spray using widely available spray bottles until liquid was dripping from the leaves. 4 flats of 14 plants each were treated per condition (peptide or control). Corn and soy were treated as indicated in Table 13 and compared with matched water-treated control plants. The plants were allowed to grow for 14 days. The height of the plants was again measured and compared to the original height to quantify growth. In some cases, the plants were allowed to grow without watering for 2-4 days until the onset of wilting and drought stress. At this time, the above-ground portions of the plants were harvested and weighed to determine the fresh mass. […] Growth, dry biomass, and fresh mass are calculated as the % increase over the water-treated control.

**Q.** With `CSCC[C@H](NC(=O)[C@H](CC(C)C)NC(=O)[C@H](C)NC(=O)[C@H](CCC(N)=O)NC(=O)[C@H](CCSC)NC(=O)[C@@H]1CCCN1C(=O)[C@H](CC(=O)O)NC(=O)[C@@H](N)CCC(N)=O)C(=O)N[C@@H](CCC(N)=O)C(=O)N[C@@H](CC(C)C)C(=O)N[C@@H](CC(C)C)C(=O)N[C@@H](CCC(=O)O)C(=O)N[C@@H](CC(=O)O)C(=O)N[C@@H](CC(C)C)C(=O)N[C@H](C(=O)N[C@@H](CCCCN)C(=O)N[C@@H](CC(C)C)C(=O)N[C@@H](CC(C)C)C(=O)N[C@@H](CCCCN)C(=O)O)C(C)C` [Peptide P14d] (H-QDPMQALMQLLEDLVKLLK-OH; N-terminus and C-terminus assumed) as the compound, how does the “chemical stability for >50 days” value [1] read?
**A.** The value was “around 50%”.

**Q.** With `CC[C@H](C)[C@H](NC(=O)[C@H](CCC(=O)O)NC(=O)[C@H](CCC(=O)O)NC(=O)[C@H](CCC(=O)O)NC(=O)[C@H](CCC(=O)O)NC(=O)[C@H](CCC(=O)O)NC(=O)[C@@H](N)CO)C(=O)N[C@@H](C)C(=O)N[C@@H](CCCCN)C(=O)N[C@@H](CC(C)C)C(=O)N[C@H](C(=O)N[C@@H](CO)C(=O)N[C@@H](C)C(=O)N[C@@H](CC(C)C)C(=O)N[C@H](C(=O)N[C@@H](CCC(=O)O)C(=O)N[C@@H](CO)C(=O)N[C@@H](CC(C)C)C(=O)N[C@@H](CC(C)C)C(=O)N[C@@H](CCC(=O)O)C(=O)O)[C@@H](C)CC)[C@@H](C)CC` [Peptide P15-59] (H-SEEEEEIAKLISALIESLLE-OH; N-terminus and C-terminus assumed) as the compound, how does the solubility [2] read?
**A.** The solubility was over 10000 µg/mL.

**Q.** Which solubility [2] does the source give for `CC[C@H](C)[C@H](NC(=O)[C@H](CC(N)=O)NC(=O)[C@H](CO)NC(=O)[C@H](CCC(N)=O)NC(=O)[C@H](CO)NC(=O)[C@H](CC(=O)O)NC(=O)[C@H](CC(N)=O)NC(=O)[C@@H]1CCCN1C(=O)[C@H](CCCCN)NC(=O)[C@H](CO)NC(=O)[C@H](C)NC(=O)[C@H](CC(=O)O)NC(=O)[C@H](CCC(N)=O)NC(=O)[C@@H]1CCCN1C(=O)[C@H](CC(N)=O)NC(=O)[C@H](CCC(N)=O)NC(=O)[C@@H](NC(=O)[C@@H](NC(=O)[C@H](CO)NC(=O)[C@H](CC(=O)O)NC(=O)[C@@H]1CCCN1C(=O)[C@@H](NC(=O)CNC(=O)[C@H](Cc1ccccc1)NC(=O)[C@@H](N)CC(N)=O)[C@@H](C)O)[C@@H](C)O)C(C)C)C(=O)N[C@@H](C)C(=O)N[C@@H](CCCCN)C(=O)N[C@@H](CC(C)C)C(=O)N[C@H](C(=O)N[C@@H](CO)C(=O)N[C@@H](C)C(=O)N[C@@H](CC(C)C)C(=O)N[C@H](C(=O)N[C@@H](CCSC)C(=O)N[C@@H](CO)C(=O)N[C@@H](CC(C)C)C(=O)N[C@@H](CC(C)C)C(=O)N[C@@H](CCC(N)=O)C(=O)N[C@@H](CCSC)C(=O)O)[C@@H](C)CC)[C@@H](C)CC` [Peptide P15a] (H-NFGTPDSTVQNPQDASKPNDSQSNIAKLISALIMSLLQM-OH; N-terminus and C-terminus assumed) here?
**A.** The solubility was over 10000 µg/mL.

**Q.** For “SEGISEKQLDQLLSQLIEALLQP [Peptide P4-14S-18E]”, which “Growth (% difference)” value (Soy; Rate 2.0, 14 days, % increase over water-treated control) is on record?
**A.** Its value is 9.0 % difference.

**Q.** And the “Dry biomass (% difference)” value (Soy; Rate 2.0, % increase over water-treated control)?
**A.** Its value is 0.8 % difference.
